What was measured:
Test in all cases: Cell growth inhibition assay (Cell Titer Glo, 7 days)
Type in all cases: cell-based, Human
Colo-205 = Colo-205 BRAF V600E mutant CRC line, relative to vehicle (DMSO)
Description: (§1) Human colon tumor lines, Colo-205, HT-29, RKO, SW1417, LS411N and human melanoma line A375 were from ATCC. All lines were cultured in RPMI 1640 medium containing 10% fetal bovine serum (FBS).
(§2) All cells were cultured for a minimum of 72 hours prior to cell plating. Cells were assayed in a 96-well tissue culture plate (NUNC 136102) of RPMI medium containing 10% FBS for all cells at 500 cells per well. […] ATP levels were determined by adding Cell Titer Glo® (Promega) according to the manufacturer's protocol. Briefly, Cell Titer Glo0 was added to each plate, incubated for 30 minutes then luminescent signal was read on the SpectraMax L plate reader with a 0.5 sec integration time.
(§3) Inhibition of cell growth was estimated after treatment with compound or combination of compounds for 7 days and comparing the signal to cells treated with vehicle (DMSO). Cell growth was calculated relative to vehicle (DMSO) treated control wells.

HT-29 = HT-29 BRAF V600E mutant CRC line, relative to vehicle (DMSO)
Description: as §1, §2, §3

RKO = RKO BRAF V600E mutant CRC line, relative to vehicle (DMSO)
Description: as §1, §2, §3

A375 = A375 melanoma line, relative to vehicle (DMSO)
Description: as §1, §2, §3

SW1417 = SW1417 BRAF V600E mutant CRC line, relative to vehicle (DMSO)
Description: as §1, §2, §3

LS411N = LS411N BRAF V600E mutant CRC line, relative to vehicle (DMSO)
Description: as §1, §2, §3

| Structure (SMILES) | cell growth inhibition, agent alone (Colo-205) | cell growth inhibition, agent alone (HT-29) | cell growth inhibition, agent alone (RKO) | cell growth inhibition, agent alone (A375) | cell growth inhibition, agent alone (SW1417) | cell growth inhibition, agent alone (LS411N) |
| --- | --- | --- | --- | --- | --- | --- |
| CC(=O)Nc1cccc(-n2c(=O)n(C3CC3)c(=O)c3c(Nc4ccc(I)cc4F)n(C)c(=O)c(C)c32)c1 [Compound A, N-{3-[3-cyclopropyl-5-(2-fluoro-4-iodo-phenylamino)6,8-dimethyl-2,4,7-trioxo-3,4,6,7-tetrahydro-2H-pyrido[4,3-d]pyrimidin-1-yl]phenyl}acetamide] | sensitive | sensitive | resistant | sensitive | resistant | sensitive |
| CC(C)(C)c1nc(-c2cccc(NS(=O)(=O)c3c(F)cccc3F)c2F)c(-c2ccnc(N)n2)s1 [Compound B, N-{3-[5-(2-Amino-4-pyrimidinyl)-2-(1,1-dimethylethyl)-1,3-thiazol-4-yl]-2-fluorophenyl}-2,6-difluorobenzenesulfonamide] | sensitive | sensitive | resistant | sensitive | resistant | sensitive |
| C#Cc1cccc(Nc2ncnc3cc(OCCOC)c(OCCOC)cc23)c1 [erlotinib, reference compound] | inactive | inactive | inactive | inactive | inactive | inactive |

From patent publication US20150273057A1, “Combination” (GLAXOSMITHKLINE LLC, priority 2012, published 2015)
